US12162892B2, “CD16a binding agents and uses thereof” (KLEO PHARMACEUTICALS, INC., priority 2018, dated 2024)
“And” between values parts separate entries of the source, which are not always exact repeats. Identical values can stand only once. Each block holds one compound with its values, some of them ahead of it.

What was measured:
[1] = target: T1, CD16a158F (Homo sapiens, UniProt P08637); assay: Microscale Thermophoresis; format: binding; design: purchased Acro Biosystems CDA-H82E8; details: read-out: MST-CD16a158F KD
T1 sequence (P08637 17-208 limits assumed): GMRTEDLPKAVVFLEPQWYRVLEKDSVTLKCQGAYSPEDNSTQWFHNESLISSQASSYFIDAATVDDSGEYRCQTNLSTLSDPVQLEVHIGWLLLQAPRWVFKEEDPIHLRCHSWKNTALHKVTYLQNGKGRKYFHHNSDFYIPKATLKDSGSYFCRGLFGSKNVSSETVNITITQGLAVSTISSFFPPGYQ
Description: (§1) Target proteins (poly-histidine tagged, 600 nM) were fluorescently labeled combination with an equal volume of dye (200 nM, His-Tag labeling kit RED-tris-NTA NanoTemper: MO-L008) PBST. The mixture rotated in the dark for 45 min before being spun down at 12000 rpm for 15 min to remove uncomplexed material. The fluorescence of the removed supernatant was adjusted to for a test concentration of 40-80 nM (2× the final measured). Test ligands were prepared across a 12-point dilution series in a 96-well PCR plate at a volume of 20 uL at 2× the concentration desired for testing (0.2% BSA in PBST). The dilution series was then combined with an equal volume of the labeled target at 2× the concentration desired for testing. Capillaries were added to the wells of the combined target/ligand complex and measured by MST. Measurements were taken using a Nanotemper Monolith NT.115, and the data was analyzed using NanoTemper MO.Control software.

[2] = target: T2, CD16a158V (Homo sapiens, UniProt P08637, F176V); assay: Microscale Thermophoresis; format: binding; details: read-out: MST-CD16a158V KD
T2 sequence (P08637 17-208 F176V): as the sequence (P08637 17-208 limits assumed) above, with F160V counted along it
Description: as §1

[3] = target: T1, CD16a158F; assay: Biotinylated Ligand ELISA Assay; format: binding; design: purchased Acro Biosystems CDA-H82E8; details: Biotinylated CD16a protein at 10 nM
Procedure, shortened: (§2)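 Neutravidin-coated plates, BSA-blocked, loaded with biotinylated ligands 1 h at 25° C., free sites blocked with 100 μM biotin. Bound protein detected with streptavidin-HRP 1 h at 25° C. and chemiluminescent substrate for 5 min; luminescence read.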

[4] = target: T2, CD16a158V; assay: Biotinylated Ligand ELISA Assay; format: binding; details: Biotinylated CD16a protein at 10 nM
Procedure, shortened: as §2

[5] = system: primary monocytes; assay: ADCP assay using fresh primary monocytes; format: cell-based, human; details: beads loaded with test compound at 50 uM; 37C for 18 hrs
Description: (§3) Biotinylated fluorescent beads (Invitrogen, cat #P35372) were thoroughly mixed by vortexing for 1 min. Ten microliters of supplied bead suspension per treatment type were dispensed in Eppendorf tubes, and washed with 1 ml PBS […], then re-suspended in 500 uL of 1% BSA in PBS. Test compounds were added to bead suspensions to a final concentration of 50 uM, and biotinylated human IgG whole molecule (Rockland 009-0602) final concentration of 20 ug/mL.
(§4) Tubes were incubated at room temperature for 1 hr on a rocking platform.
(§5) Following incubation, beads were pelleted in a microcentrifuge at 12,000 g for 5 minutes at room temperature. Supernatants were carefully aspirated and beads were washed 5 times by resuspending in 1 ml of PBS 1% BSA, and centrifuging as described above. Finally, beads were resuspended in 500 ul of PBS 1% BSA and used in ADCP assay.
PBMC, freshly isolated from whole blood (Bioreclamation IVT0) using Ficoll-Paque density centrifugation were resuspended in serum-free, supplemented RPMI at 2×10^6 cells/mL.
Ten milliliters of the resulting cell suspension was seeded into 75-cm^2 tissue culture flask (Denville Scientific TC9341) and incubated 2-3 hr at 37° C. 5% CO2 to allow cell adhesion. Following incubation, media was decanted and surface of the flask was carefully washed twice, each time with 10 ml serum-free, supplemented RPMI to remove any residual non-adherent cells. To remove adherent cells, 10 mL of ice-cold 2.5 mM EDTA/PBS solution was added for 10 min on ice. Cells were transferred to a 15-ml conical tube and centrifuge 10 min at 300×g, room temperature, to remove the EDTA/PBS solution. Monocytes were then resuspended in RPMI 10% FCS at 5×10^5 cells/mL to be used in ADCP assay. Monocyte purity was assessed by staining cells with antibodies to human CD3 FITC (Biolegend 300306), CD19 PeCy7 (Biolegend 302216), CD14 BV421 (BD Biosciences, 565283), and CD16 (Biolegend 302046).
(§6) Monocytes or THP-1 cells (TIB-202 ATCC) were seeded into 96 well round bottom 96 well plates at the density of 10^5 cells per well in 200 ul, and 10 uL of fluorescent bead suspension prepared as described above was added to each well. Well contents were mixed by pipetting up and down using a multichannel pipet, and plates were incubated at 37C for 18 hrs. After incubation, well contents were transferred into flat bottom black 96 well plates (Costar #3358) and centrifuged for 2 minutes at 300 g to allow for better visualization of the cells. Images were taken using Zoe fluorescent cell imager (Biorad).

[6] = target: T2, CD16a158V; assay: Biotin ELISA, interaction with various receptors (Example 55); format: binding; details: three replicate values per compound
Description: (§7) Coat ELISA plates (Costar 3922) using Neutravidin (Thermo 31000) at 5 μg/ml (100 μl/well) for 1 hour at 37° C. Plates were washed 4 times with PBST (PBS, 0.05% Tween 20-200 μl, 1 minute/wash) then blocked using 200 μl 5% bovine serum albumin (BSA, Heat Shock, Fraction V-American Bio AB01088-00100) in PBST for 2 hours at 25° C. with moderate shaking. BSA was removed and plates were washed. Biotinylated ligands diluted in PBSTB (PBST+0.1% BSA) were then added (100 μl/well) and incubated for 1 hour at 25° C. with gentle shaking. Ligands were removed and plates were washed. Any remaining unoccupied neutravidin binding sites were blocked by adding 100 μM Biotin (Fisher BP232-1) (100 μl/well) and incubated for 1 hour at 25° C. with gentle shaking. Plates were then washed. […] Protein was removed and plates were washed. Streptavidin-HRP (Invitrogen 434323) diluted 1:5000 in PBSTB was added (100 μl/well) and incubated for 1 hour at 25° C. with gentle shaking. Wash plates. Substrate (Super Signal ELISA Pico Chemiluminescent Substrate-Thermo 37069) was added (100 μl/well) and plates were incubated for 5 minutes at 25° C. with gentle shaking. Luminescence was then measured on the Biotek Synergy H1 microplate reader.
(§8) Using similar methods as Examples 47 or 53, interactions with a number of receptors were measured. In some embodiments, “stock” is antibody only, and “control” is an antibody that went through the same procedure except using DMSO only as opposed to a compound. When contacted with targeting moieties such as antibodies in the Examples, compounds, e.g., I-95, I-96, etc. can react through their reactive groups

[7] = target: CD3ed (Homo sapiens, UniProt P04234+P07766); assay: as above; format: binding; details: three replicate values per compound
Chain of CD3ed (P07766 23-126 limits assumed): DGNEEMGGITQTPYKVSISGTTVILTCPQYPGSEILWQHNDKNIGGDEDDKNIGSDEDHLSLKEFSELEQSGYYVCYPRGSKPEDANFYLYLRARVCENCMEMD
Chain of CD3ed (P04234 22-105 limits assumed): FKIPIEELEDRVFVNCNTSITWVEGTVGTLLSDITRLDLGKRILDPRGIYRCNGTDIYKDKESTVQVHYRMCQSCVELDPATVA
Description: as §7, §8

[8] = target: T1, CD16a158F; assay: as above; format: binding; details: three replicate values per compound
Description: as §7, §8

[9] = system: CD32a-R167; assay: as above; format: binding; details: three replicate values per compound
Description: as §7, §8

[10] = target: T3, CD32a H167 (Homo sapiens, UniProt P12318); assay: as above; format: binding; details: three replicate values per compound
T3 sequence (P12318 36-218 limits assumed): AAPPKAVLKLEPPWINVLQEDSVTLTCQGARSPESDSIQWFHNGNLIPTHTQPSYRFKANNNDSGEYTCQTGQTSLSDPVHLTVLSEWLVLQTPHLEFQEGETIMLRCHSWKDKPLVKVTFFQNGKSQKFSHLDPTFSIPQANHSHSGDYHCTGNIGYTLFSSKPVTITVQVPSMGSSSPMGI
Description: as §7, §8

[11] = target: T4, CD32b (Homo sapiens, UniProt P31994); assay: as above; format: binding; details: three replicate values per compound
T4 sequence (P31994 43-310): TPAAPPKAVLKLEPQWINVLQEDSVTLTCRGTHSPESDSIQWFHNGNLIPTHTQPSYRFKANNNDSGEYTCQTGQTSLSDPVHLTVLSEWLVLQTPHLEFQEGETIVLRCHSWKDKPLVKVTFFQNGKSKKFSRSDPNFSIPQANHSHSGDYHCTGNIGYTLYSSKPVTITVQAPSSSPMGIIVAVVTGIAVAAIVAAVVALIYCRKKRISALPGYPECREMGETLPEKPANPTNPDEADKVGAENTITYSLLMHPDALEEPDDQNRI
Description: as §7, §8

[12] = target: CD64 (Homo sapiens, UniProt P12314); assay: as above; format: binding; details: three replicate values per compound
Chain of CD64 (P12314 16-374): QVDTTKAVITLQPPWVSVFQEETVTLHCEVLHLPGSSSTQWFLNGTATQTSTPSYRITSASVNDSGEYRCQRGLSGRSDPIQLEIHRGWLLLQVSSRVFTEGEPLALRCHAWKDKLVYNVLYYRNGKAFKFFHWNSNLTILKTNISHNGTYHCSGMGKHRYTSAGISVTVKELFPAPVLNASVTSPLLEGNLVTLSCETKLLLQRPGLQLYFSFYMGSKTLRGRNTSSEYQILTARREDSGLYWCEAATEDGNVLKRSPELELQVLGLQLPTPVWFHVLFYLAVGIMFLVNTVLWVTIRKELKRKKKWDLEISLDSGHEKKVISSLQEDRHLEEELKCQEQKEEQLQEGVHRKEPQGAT
Description: as §7, §8

[13] = Biotin ELISA, No Protein (Example 55); format: binding; details: three replicate values per compound
Description: as §7, §8

[14] = system: CD16a negative THP1 cells; assay: ADCP assay using THP-1 cells; format: cell-based; details: beads loaded with test compound at 50 uM; 37C for 18 hrs
Description: as §3, §4, §5, §6

[15] = target: T1, CD16a158F; assay: CD16a-MATE ELISA; format: binding; design: purchased Acro Biosystems CDA-H82E8; details: Carbohydrate Conjugated MATEs; relative to Rituximab; Antibodies tested at 2 ug/mL
[16] = system: CD16a158V; assay: CD16a-MATE ELISA; format: binding; details: Carbohydrate Conjugated MATEs; relative to Rituximab; Antibodies tested at 2 ug/mL

Compound: O=C(CCCC[C@@H]1SC[C@@H]2NC(=O)N[C@@H]21)NCCOCCOCCOCCOCCOCCOCCOCCOCCn1cc(-c2ccc(NC(=O)C3CC(=O)N(c4ccccc4)C3)cc2)nn1 (stereo partly shown) [Compound I-36]
- ACDP (primary monocytes)-normalized phagocytosis score [5]: B (a normalized phagocytosis score of 1.5-2.0)
- Biotin ELISA Results CD16a-158V [6]: −378 and −180 and −282
- Biotin ELISA Results CD3ed [7]: 1016 and −29 and −4459
- Biotin ELISA Results CD16a-158F [8]: 2154 and −1155 and −213
- Biotin ELISA Results CD32a-R167 [9]: 280 and −228 and −1215
- Biotin ELISA Results CD32a-H167 [10]: 1138 and 43 and 249
- Biotin ELISA Results CD32b [11]: 98 and 1052 and 486
- Biotin ELISA Results CD64 [12]: 54153 and 79621 and 89966
- Biotinylated Ligand ELISA-CD16a158F Binding (RLU) [3]: C (a relative luminescence value (RLU) of 1,000-10,000)
- Biotin ELISA Results No Protein [13]: −764 and −989 and −154
- Biotinylated Ligand ELISA-CD16a158V Binding (RLU) [4]: C (a relative luminescence value (RLU) of 1,000-10,000)
- ACDP (CD16a negative THP1 cells)-normalized phagocytosis score [14]: B (a normalized phagocytosis score of 1.5-2.0)
- Kd [2]: 0.001 to 0.1 µM

Compound: O=C(CCCC[C@@H]1SC[C@@H]2NC(=O)N[C@@H]21)NCCOCCOCCOCCOCCOCCOCCOCCOCCn1cc(-c2cccc(NC(=O)N3CCC4(CC3)NC(=O)N(c3ccccc3)C4=O)c2)nn1 [Compound I-27]
- Kd [1]: 0.1 to 0.5 µM
- ACDP (primary monocytes)-normalized phagocytosis score [5]: A (a normalized phagocytosis score of >2.0)
- Biotinylated Ligand ELISA-CD16a158F Binding (RLU) [3]: B (a relative luminescence value (RLU) of 10,000-100,000)
- Biotinylated Ligand ELISA-CD16a158V Binding (RLU) [4]: B (a relative luminescence value (RLU) of 10,000-100,000)
- ACDP (CD16a negative THP1 cells)-normalized phagocytosis score [14]: B (a normalized phagocytosis score of 1.5-2.0)

Compound: O=C(CCCC[C@@H]1SC[C@@H]2NC(=O)N[C@@H]21)NCCOCCOCCOCCOCCOCCOCCOCCOCCn1cc(-c2ccc(NC(=O)C3CC(=O)N(c4cc(F)ccc4F)C3)cc2)nn1 (stereo partly shown) [Compound I-31]
- Kd [1]: 0.5 to 1 µM
- Biotin ELISA Results CD16a-158V [6]: 2241 and 1940 and 2108
- Biotin ELISA Results CD3ed [7]: 2134 and 3894 and 2741
- Biotin ELISA Results CD16a-158F [8]: 1915 and 592 and 1294
- Biotin ELISA Results CD32a-R167 [9]: 4134 and 3245 and 4916
- Biotin ELISA Results CD32a-H167 [10]: 3965 and 4173 and 4715
- Biotin ELISA Results CD32b [11]: 3983 and 3476 and 6119
- Biotin ELISA Results CD64 [12]: 68732 and 70002 and 48114
- Biotinylated Ligand ELISA-CD16a158F Binding (RLU) [3]: C (a relative luminescence value (RLU) of 1,000-10,000)
- Biotin ELISA Results No Protein [13]: 2129 and 3223 and 1542
- Biotinylated Ligand ELISA-CD16a158V Binding (RLU) [4]: C (a relative luminescence value (RLU) of 1,000-10,000)

Compound: Rituximab (UDP-GalNAz labeled)
- CD16a158F Normalized* Response (%) [15]: C (an ELISA result of 15-25% relative to Rituximab)
- CD16a158V Normalized* Response (%) [16]: C (an ELISA result of 15-25% relative to Rituximab)

Compound: O=C(CCCC[C@@H]1SC[C@@H]2NC(=O)N[C@@H]21)NCCOCCOCCOCCOCCOCCOCCOCCOCCC(=O)N1CCC(N2CC(=O)N(c3ccccc3)C2=O)CC1 [Compound I-30]
- Kd [1]: > 1 µM

Continued, in another order:

- Kd [1]: 0.1 to 0.5 µM
- Kd [2]: 0.1 to 0.5 µM
Compound: COc1ccc(OC)c(N2CC(C(=O)Nc3ccc(-c4cn(CCCC(=O)O)nn4)cc3)CC2=O)c1 (stereo not shown) [Compound I-29]

- Kd [1]: 0.1 to 0.5 µM
Compound: O=C(CCCC[C@@H]1SC[C@@H]2NC(=O)N[C@@H]21)NCCOCCOCCOCCOCCOCCOCCOCCOCCn1cc(-c2ccc(C(=O)N3CCC4(CC3)NC(=O)N(Cc3ccccc3)C4=O)cc2)nn1 [Compound I-28]
- Biotinylated Ligand ELISA-CD16a158F Binding (RLU) [3]: B (a relative luminescence value (RLU) of 10,000-100,000)
- Biotinylated Ligand ELISA-CD16a158V Binding (RLU) [4]: B (a relative luminescence value (RLU) of 10,000-100,000)
